These results are taken from patent US12492173B2, “Herbicidal substituted N-tetrazolyl aryl carboxamides” (Bayer Aktiengesellschaft, priority 2019, dated 2025).

The first test has as its system Stellaria media. Nature of the test: Pre-emergence herbicidal action, STEME. Type of test: in vivo. Particulars: dosage 320 g/ha, scored visually after 3 weeks vs untreated controls (100% = plants have died). In outline:
(§1)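 Sown pots (sandy loam) sprayed pre-emergence → greenhouse → visual rating at 3 weeks; % activity vs untreated control, 100% = dead.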
As to `CCn1nnnc1NC(=O)c1ccc(C(F)F)c(CSC)c1C` [Example 2-107], the “herbicidal activity STEME” value was 90%.

For `CCCn1nnnc1NC(=O)c1ccc(C(F)(F)F)c(CS(C)(=O)=O)c1OC` [Example 3-136], the “herbicidal activity STEME” value is 100%.

For `CCS(=O)(=O)Cc1c(C(F)(F)F)ccc(C(=O)Nc2nnnn2C)c1Cl` [Example 1-301], the “herbicidal activity STEME” value came out at 90%.

For `Cc1c(C(=O)Nc2nnnn2C)ccc(C(F)(F)F)c1CS(C)(=O)=O` [Example 1-85], the “herbicidal activity STEME” value is 100%.

With `CCn1nnnc1NC(=O)c1ccc(C(F)(F)F)c(CS(C)(=O)=O)c1Br` [Example 2-382], the “herbicidal activity STEME” value was determined as 90%.

Regarding `CCn1nnnc1NC(=O)c1ccc(C(F)(F)F)c(CSC)c1SC` [Example 2-161], the “herbicidal activity STEME” value stood at 100%.

As to `CSCc1c(C(F)(F)F)ccc(C(=O)Nc2nnnn2C)c1F` [Example 1-242], the “herbicidal activity STEME” value is 90%.

As to `Cc1c(C(=O)Nc2nnnn2C)ccc(C(F)(F)F)c1C[S+](C)[O-]` (stereo not shown) [Example 1-84], the “herbicidal activity STEME” value came out at 100%.

For `CCCn1nnnc1NC(=O)c1ccc(C(F)F)c(CSC)c1C` [Example 3-107], the “herbicidal activity STEME” value stood at 100%.

In the case of `CCCn1nnnc1NC(=O)c1ccc(C(F)(F)F)c(CSC)c1OC` [Example 3-134], the “herbicidal activity STEME” value amounted to 100%.

For a further test, the system named is Polygonum convolvulus. Nature of the test: Pre-emergence herbicidal action, POLCO. Type of test: in vivo. Conditions: dosage 320 g/ha, scored visually after 3 weeks vs untreated controls (100% = plants have died). In outline:
as §1
As for `CCn1nnnc1NC(=O)c1ccc(C(F)F)c(CSC)c1C` [Example 2-107], the “herbicidal activity POLCO” value was determined as 80%.

Turning to `CCCn1nnnc1NC(=O)c1ccc(C(F)(F)F)c(CS(C)(=O)=O)c1OC` [Example 3-136], the “herbicidal activity POLCO” value was determined as 80%.

Turning to `CCS(=O)(=O)Cc1c(C(F)(F)F)ccc(C(=O)Nc2nnnn2C)c1Cl` [Example 1-301], the “herbicidal activity POLCO” value was found to be 100%.

`Cc1c(C(=O)Nc2nnnn2C)ccc(C(F)(F)F)c1CS(C)(=O)=O` [Example 1-85]: the “herbicidal activity POLCO” value came to 90%.

For the compound `CCn1nnnc1NC(=O)c1ccc(C(F)(F)F)c(CS(C)(=O)=O)c1Br` [Example 2-382], the “herbicidal activity POLCO” value was 90%.

With `CCn1nnnc1NC(=O)c1ccc(C(F)(F)F)c(CSC)c1SC` [Example 2-161], the “herbicidal activity POLCO” value came to 90%.

As for `CSCc1c(C(F)(F)F)ccc(C(=O)Nc2nnnn2C)c1F` [Example 1-242], the “herbicidal activity POLCO” value is listed as 80%.

Turning to `Cc1c(C(=O)Nc2nnnn2C)ccc(C(F)(F)F)c1C[S+](C)[O-]` (stereo not shown) [Example 1-84], the “herbicidal activity POLCO” value was determined as 90%.

Turning to `CCCn1nnnc1NC(=O)c1ccc(C(F)F)c(CSC)c1C` [Example 3-107], the “herbicidal activity POLCO” value was found to be 90%.

`CCCn1nnnc1NC(=O)c1ccc(C(F)(F)F)c(CSC)c1OC` [Example 3-134]: the “herbicidal activity POLCO” value amounted to 80%.

A further test deals with Abutilon theophrasti. Nature of the test: Pre-emergence herbicidal action, ABUTH. The class given is in vivo. Conditions: dosage 320 g/ha, scored visually after 3 weeks vs untreated controls (100% = plants have died). In outline:
as §1
On to `CCn1nnnc1NC(=O)c1ccc(C(F)F)c(CSC)c1C` [Example 2-107], for which the “herbicidal activity ABUTH” value was 100%.

As for `CCCn1nnnc1NC(=O)c1ccc(C(F)(F)F)c(CS(C)(=O)=O)c1OC` [Example 3-136], the “herbicidal activity ABUTH” value was 100%.

On to `CCS(=O)(=O)Cc1c(C(F)(F)F)ccc(C(=O)Nc2nnnn2C)c1Cl` [Example 1-301], for which the “herbicidal activity ABUTH” value worked out at 100%.

With `Cc1c(C(=O)Nc2nnnn2C)ccc(C(F)(F)F)c1CS(C)(=O)=O` [Example 1-85], the “herbicidal activity ABUTH” value was 100%.

With `CCn1nnnc1NC(=O)c1ccc(C(F)(F)F)c(CS(C)(=O)=O)c1Br` [Example 2-382], the “herbicidal activity ABUTH” value was determined as 100%.

Consider `CCn1nnnc1NC(=O)c1ccc(C(F)(F)F)c(CSC)c1SC` [Example 2-161], for which the “herbicidal activity ABUTH” value worked out at 100%.

For `CSCc1c(C(F)(F)F)ccc(C(=O)Nc2nnnn2C)c1F` [Example 1-242], the “herbicidal activity ABUTH” value is recorded as 100%.

On to `Cc1c(C(=O)Nc2nnnn2C)ccc(C(F)(F)F)c1C[S+](C)[O-]` (stereo not shown) [Example 1-84], for which the “herbicidal activity ABUTH” value is 100%.

Turning to `CCCn1nnnc1NC(=O)c1ccc(C(F)F)c(CSC)c1C` [Example 3-107], the “herbicidal activity ABUTH” value came to 100%.

With `CCCn1nnnc1NC(=O)c1ccc(C(F)(F)F)c(CSC)c1OC` [Example 3-134], the “herbicidal activity ABUTH” value is 100%.

The test system of the next test is Stellaria media. Nature of the test: Post-emergence herbicidal action, STEME. Type of test: in vivo. Also noted: key: % herbicidal action vs untreated; 100 = plants died, 0 = like control. Particulars: Dosage 80 g/ha. In outline: (§2)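 WP or EC formulations, diluted in water at 600 to 800 l/ha with 0.2% wetting agent, are sprayed onto green parts of one-leaf-stage plants grown in sandy loam. Visual assessment of percent damage relative to untreated controls follows after approximately 3 weeks in the greenhouse.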
For the compound `CCn1nnnc1NC(=O)c1ccc(C(F)F)c(CSC)c1C` [Example 2-107], the “herbicidal action STEME” value stood at 100.

For `CCCn1nnnc1NC(=O)c1ccc(C(F)(F)F)c(CS(C)(=O)=O)c1OC` [Example 3-136], the “herbicidal action STEME” value was determined as 100.

Consider `CCS(=O)(=O)Cc1c(C(F)(F)F)ccc(C(=O)Nc2nnnn2C)c1Cl` [Example 1-301], for which the “herbicidal action STEME” value is 100.

For `Cc1c(C(=O)Nc2nnnn2C)ccc(C(F)(F)F)c1CS(C)(=O)=O` [Example 1-85], the “herbicidal action STEME” value came to 100.

Take `CCn1nnnc1NC(=O)c1ccc(C(F)(F)F)c(CS(C)(=O)=O)c1Br` [Example 2-382]: the “herbicidal action STEME” value is 100.

Take `CSCc1c(C(F)(F)F)ccc(C(=O)Nc2nnnn2C)c1F` [Example 1-242]: the “herbicidal action STEME” value is on record as 100.

Turning to `CCCn1nnnc1NC(=O)c1ccc(C(F)F)c(CSC)c1C` [Example 3-107], the “herbicidal action STEME” value came to 80.

For the compound `CCCn1nnnc1NC(=O)c1ccc(C(F)(F)F)c(CSC)c1OC` [Example 3-134], the “herbicidal action STEME” value was found to be 100.

Staying with this test, now noted: post-emergence, dosage 80 g/ha.
In the case of `CCn1nnnc1NC(=O)c1ccc(C(F)(F)F)c(CSC)c1SC` [Example 2-161], the “herbicidal action STEME” value was found to be 100%.

In the case of `Cc1c(C(=O)Nc2nnnn2C)ccc(C(F)(F)F)c1C[S+](C)[O-]` (stereo not shown) [Example 1-84], the “herbicidal action STEME” value was found to be 100%.

Another test concerns Setaria viridis. In words: Pre-emergence herbicidal action, SETVI. The class given is in vivo. Conditions: dosage 320 g/ha, scored visually after 3 weeks vs untreated controls (100% = plants have died). In outline: as §1
Take `CCn1nnnc1NC(=O)c1ccc(C(F)F)c(CSC)c1C` [Example 2-107]: the “herbicidal activity SETVI” value turned out to be 100%.

As to `CCCn1nnnc1NC(=O)c1ccc(C(F)(F)F)c(CS(C)(=O)=O)c1OC` [Example 3-136], the “herbicidal activity SETVI” value is on record as 100%.

For `CCS(=O)(=O)Cc1c(C(F)(F)F)ccc(C(=O)Nc2nnnn2C)c1Cl` [Example 1-301], the “herbicidal activity SETVI” value was determined as 100%.

Regarding `Cc1c(C(=O)Nc2nnnn2C)ccc(C(F)(F)F)c1CS(C)(=O)=O` [Example 1-85], the “herbicidal activity SETVI” value turned out to be 100%.

For the compound `CCn1nnnc1NC(=O)c1ccc(C(F)(F)F)c(CS(C)(=O)=O)c1Br` [Example 2-382], the “herbicidal activity SETVI” value turned out to be 100%.

Regarding `CCn1nnnc1NC(=O)c1ccc(C(F)(F)F)c(CSC)c1SC` [Example 2-161], the “herbicidal activity SETVI” value is 100%.

As for `CSCc1c(C(F)(F)F)ccc(C(=O)Nc2nnnn2C)c1F` [Example 1-242], the “herbicidal activity SETVI” value came out at 100%.

Regarding `Cc1c(C(=O)Nc2nnnn2C)ccc(C(F)(F)F)c1C[S+](C)[O-]` (stereo not shown) [Example 1-84], the “herbicidal activity SETVI” value is given as 100%.

For `CCCn1nnnc1NC(=O)c1ccc(C(F)F)c(CSC)c1C` [Example 3-107], the “herbicidal activity SETVI” value worked out at 100%.

Take `CCCn1nnnc1NC(=O)c1ccc(C(F)(F)F)c(CSC)c1OC` [Example 3-134]: the “herbicidal activity SETVI” value is 100%.

The subject of a further test is Pharbitis purpurea. Nature of the test: Post-emergence herbicidal action, PHBPU. Type of test: in vivo. Particulars: Dosage 80 g/ha. In outline: as §2
For `CCn1nnnc1NC(=O)c1ccc(C(F)F)c(CSC)c1C` [Example 2-107], the “herbicidal action PHBPU” value is listed as 90.

With `CCCn1nnnc1NC(=O)c1ccc(C(F)(F)F)c(CS(C)(=O)=O)c1OC` [Example 3-136], the “herbicidal action PHBPU” value is on record as 90.

For `CCS(=O)(=O)Cc1c(C(F)(F)F)ccc(C(=O)Nc2nnnn2C)c1Cl` [Example 1-301], the “herbicidal action PHBPU” value is 100.

Regarding `Cc1c(C(=O)Nc2nnnn2C)ccc(C(F)(F)F)c1CS(C)(=O)=O` [Example 1-85], the “herbicidal action PHBPU” value is on record as 100.

For the compound `CCn1nnnc1NC(=O)c1ccc(C(F)(F)F)c(CS(C)(=O)=O)c1Br` [Example 2-382], the “herbicidal action PHBPU” value was found to be 100.

For the compound `CSCc1c(C(F)(F)F)ccc(C(=O)Nc2nnnn2C)c1F` [Example 1-242], the “herbicidal action PHBPU” value was 100.

Take `CCCn1nnnc1NC(=O)c1ccc(C(F)F)c(CSC)c1C` [Example 3-107]: the “herbicidal action PHBPU” value turned out to be 80.

With `CCCn1nnnc1NC(=O)c1ccc(C(F)(F)F)c(CSC)c1OC` [Example 3-134], the “herbicidal action PHBPU” value is given as 100.

The same test, now with this note: post-emergence, dosage 80 g/ha.
In the case of `CCn1nnnc1NC(=O)c1ccc(C(F)(F)F)c(CSC)c1SC` [Example 2-161], the “herbicidal action PHBPU” value is 90%.

As to `Cc1c(C(=O)Nc2nnnn2C)ccc(C(F)(F)F)c1C[S+](C)[O-]` (stereo not shown) [Example 1-84], the “herbicidal action PHBPU” value is on record as 100%.

The test system of a further test is Matricaria inodora. In words: Pre-emergence herbicidal action, MATIN. The class given is in vivo. Conditions: dosage 320 g/ha, scored visually after 3 weeks vs untreated controls (100% = plants have died). In outline: as §1
With `CCn1nnnc1NC(=O)c1ccc(C(F)F)c(CSC)c1C` [Example 2-107], the “herbicidal activity MATIN” value is 100%.

`CCCn1nnnc1NC(=O)c1ccc(C(F)(F)F)c(CS(C)(=O)=O)c1OC` [Example 3-136]: the “herbicidal activity MATIN” value turned out to be 100%.

Consider `CCS(=O)(=O)Cc1c(C(F)(F)F)ccc(C(=O)Nc2nnnn2C)c1Cl` [Example 1-301], for which the “herbicidal activity MATIN” value is recorded as 100%.

Turning to `Cc1c(C(=O)Nc2nnnn2C)ccc(C(F)(F)F)c1CS(C)(=O)=O` [Example 1-85], the “herbicidal activity MATIN” value came out at 100%.

As to `CCn1nnnc1NC(=O)c1ccc(C(F)(F)F)c(CS(C)(=O)=O)c1Br` [Example 2-382], the “herbicidal activity MATIN” value turned out to be 100%.

As for `CCn1nnnc1NC(=O)c1ccc(C(F)(F)F)c(CSC)c1SC` [Example 2-161], the “herbicidal activity MATIN” value is recorded as 100%.

With `CSCc1c(C(F)(F)F)ccc(C(=O)Nc2nnnn2C)c1F` [Example 1-242], the “herbicidal activity MATIN” value came to 100%.

Consider `Cc1c(C(=O)Nc2nnnn2C)ccc(C(F)(F)F)c1C[S+](C)[O-]` (stereo not shown) [Example 1-84], for which the “herbicidal activity MATIN” value was found to be 100%.

In the case of `CCCn1nnnc1NC(=O)c1ccc(C(F)F)c(CSC)c1C` [Example 3-107], the “herbicidal activity MATIN” value was determined as 100%.

Take `CCCn1nnnc1NC(=O)c1ccc(C(F)(F)F)c(CSC)c1OC` [Example 3-134]: the “herbicidal activity MATIN” value amounted to 100%.
